# Experimental data: patent US8093393B2, “Cationic ceramides, and analogs thereof, and their use for preventing or treating cancer” (MUSC Foundation for Research Development, priority 2004, dated 2012)
# How the values were obtained:
# [1] = system: L929 mouse fibroblast cells; experiment: TNFα-induced PGE2 release; format: cell-based
# Excerpt: Interleukin-1 is a major inducer of inflammation and TNF is an important regulator of the reaction. Both cytokines can activate ceramidase, and thus inhibiting the activity of ceramidase can result in an anti-inflammatory effect. This may involve the prevention of the formation of sphingosine and sphingosine phosphate which have pro-inflammatory effects. Also, inhibition of ceramidase may prevent the hyperproliferation of immune cells that are important for inflammation. […] The release of PGE2 is also shown to be inhibited by D-(N-myristolyamino)-1-phenyl-1-propanol), D-MAPP, which is an inhibitor of one of the ceramidase. This observation may be important for inhibiting inflammatory reactions that occur in conditions, such as but not limited to rheumatoid arthritis. Thus, it is possible to treat or prevent inflammation by regulating the level of cellular ceramide using the method of the invention. As discussed above, ceramide level can be increased by administering compounds of the present invention that can inhibit mitochondrial ceramidase.
# [2] = mice; cited from earlier work
# [3] = system: telomerase; experiment: Telomerase activity (TRAP) in treated cells; format: cell-based, human; conditions: UM-SCC-22A, 48 hr, C6-Pyr-Cer 1 μM, GMZ 100 nM
# Description: FIGS. 13A to 13B. Roles of CCPS on cell cycle profiles, and telomerase activity of UM-SCC-22A cells. (FIG. 13A) The effects of D-e-C6—, D-e-C12- and L-th-C12-pyridinium ceramides (at 1 μM for 48 hr) on cell cycle profiles of UM-SCC-22A cells were determined and compared to that of untreated cells using flow cytometry as described in Materials and Methods. (FIG. 13B) The effects of 0, 100, 250 and 500 nM L-t-C6-Pyr-Cer (LCL-124) (lanes 1-4, respectively) at 96 hr treatment in UM-SCC-22A cells on telomerase activity was assessed using TRAP assay. Lanes 5 and 6 contain positive (+) and negative (−) controls. To examine whether C6-Pyr-Cer inhibits telomerase activity directly, cell extracts (as shown in lane 1) were incubated in the presence of various concentrations of L-th-C6-Pyr-ceramide (LCL-124; 10, 20 and 100 μM) and telomerase activity was determined using TRAP assay (lanes 7-9, respectively). The presence of non-telomeric 36 bp internal standard (IS) in the TRAP assay serves as a control for polymerase chain reaction, and used for quantitation/normalization of the activity of telomerase. The results shown are representative of at least two independent experiments.
# FIGS. 14A to 14D. […] (FIG. 14A) The effects of various chemotherapeutic agents on cell growth in UM-SCC-22A cells were determined using MTT assays, and the IC50 concentrations of each agent were determined from cell growth plots as described. (FIG. 14B) The synergistic effects of DOX and L-th-C6-Pyr-Cer (LCL-124) on cell growth were assessed using isobologram studies as described in Materials and Methods. (FIG. 14C) The effects of 1 μM L-th-C6-Pyr-Cer (LCL-124) or cetyl-pyridinium-bromide, without ceramide conjugate (used as a control) on the growth inhibition potential of GMZ in UM-SCC-22A cells were determined using MTT assays. (FIG. 14D) The effects of GMZ (100 nM), L-th-C6-Pyr-Cer (LCL-124; 1 μM) or GMZ and L-th-C6-Pyr-Cer (LCL-124) (100 nM and 1 μM, respectively) on telomerase activity in UM-SCC-22A cells at 48 hr were examined using TRAP assay, and compared to that of untreated controls (lanes 2, 3, 4 and 1, respectively). The data shown are representative of at least two independent experiments performed in triplicate samples. Standard deviations in each sample were between 0.1-0.5.
# Determination of telomerase activity. Telomerase activity in cell extracts was measured by the PCR-based telomere repeat amplification protocol (TRAP) using TRAPeze kit (Intergen, Gaithersburg, Md.) which includes a 36-bp internal control to allow quantification of activity. In short, the intensity of telomere-specific DNA bands, measured using Quantity One (BioRad) software, were normalized to the intensity of internal control bands for each sample on polyacrylamide gels for quantification.
# [4] = system: UM-SCC-22A xenografts; conditions: 40 mg/kg/each IP every 4 days for 20 days
# Description: A) Upper Panel: In vivo therapeutic efficacy of L-t-C6-Pyr-Cer in combination with GMZ was determined in SKID mice harboring the UM-SCC-22A xenografts implanted in both flanks. The animals were treated with L-t-C6-Pyr-Cer and GMZ at 40 mg/kg/each every 4 days for 20 days. […] In these experiments, each group contained 6 mice, harboring 12 tumors, in this study. Error bars represent standard deviations, and p values were calculated. […] C) The blood counts, the levels of serum enzymes, and electrolytes were analyzed in response to L-t-C6-Pyr-Cer alone or in combination with GMZ in SKID mice.
# After tumors were grown to about 200-400 mm^3 (about two weeks after implantation), the mice were treated without or with chemotherapeutic agents with intraperitoneal (IP) injection (alone or in combination) at half of their maximum tolerated doses (MTD) every 4 days for 20 days. Tumor volumes and the weights of the animals were measured before each treatment, and tumor sizes were measured at the end of the study. The endpoint was tumor rate of growth and/or tumor volume, which was calculated using the formula: length×width^2×0.52. Each experiment included at least 6 mice (which harbored two SCC tumors in flanks) per each treatment, and experiments were done at least in two independent trials.
# [5] = system: UM-SCC-22A cells; experiment: MTT cell survival assay and isobologram studies; format: cell-based, human; conditions: Homo sapiens, read-out: IC50 of chemotherapeutic agents
# Description: Human head and neck cancer cell lines UM-SCC-1 (retromolar trigone/floor of the mouth), UM-SCC-12 (primary tumor of larynx), and UM-SCC-22A cells were obtained from clinical samples. Cells were grown in DMEM containing 10% FCS and 1% penicillin/streptomycin at 37° C. in 5% CO2.
# MTT cell survival assay and isobologram studies. The concentrations of agents that inhibited cell growth by 50% (IC50) were determined from cell survival plots obtained by MTT. Triplicate wells were used for each treatment. The final concentration of DMSO (a solvent for conventional ceramides, GMZ and DOX) in the growth medium was less than 0.1% (v/v) which has no effect on cell growth and survival. Pyridinium ceramides were dissolved in sterile water or growth medium. In short, after cells (5-10×10^3/well) were seeded in 96-well-plates for 24 hr, they were treated with increasing concentrations of ceramide analogs for an additional 48 or 96 hr. For combination treatments, ceramides and chemotherapeutic agents (gemcitabine (GMZ) or doxorubicin (DOX)) were added to the growth medium simultaneously during treatment. Isobologram plots were then constructed using IC50 values of the two agents alone or in combination obtained from MTT assays. A straight line joining points on x- and y-axes represent the IC50 concentrations of two agents, and the points representing the IC50 concentrations of the combination of the two agents are represented as scatter plots on the same graphs. In general, the points that fall within the left of the straight line indicate synergism. The experiments were performed as triplicates in at least 3 independent experiments.
# Human head and neck cancer cell lines UM-SCC-1 (retromolar trigone/floor of the mouth), UM-SCC-14A (SCC of anterior floor of the mouth), and UM-SCC-22A (SCC of hypopharynx) cells were obtained. Cells were grown in DMEM containing 10% FCS and 1% penicillin/streptomycin at 37° C. in 5% CO2.
# MTT cell survival assay and isobologram studies. The concentrations of agents that inhibited cell growth by 50% (IC50) were determined from cell survival plots obtained by MTT assays. […] In general, the points that fall within the left of the straight line indicate synergism. The experiments were performed as triplicates in at least 3 independent experiments. Error bars represent standard deviations.
# [6] = system: telomeres; experiment: Telomere length (TRF) in tumor tissues; format: in vivo, human; conditions: versus untreated controls
# Excerpt: FIG. 29. […] In (B), DNA samples obtained from tumors treated with GMZ (G), L-t-C6-Pyr-Cer (Cer), and the combination of L-t-C6-Pyr-Cer with GMZ (G/C, lanes 2-4, respectively) were compared to that of untreated (U) tumors (lane 1). Lanes 5 and 6 contain DNA samples with low (L) and high (H) molecular weight (3.9 and 10.2 kb, respectively) telomeres. In (D) The levels of hTERT protein in samples obtained from tumors treated with GMZ (G), L-t-C6-Pyr-Cer (Cer), and the combination of L-t-C6-Pyr-Cer with GMZ (G/Cer, lanes 2-4, respectively) were determined by Western blot analysis using rabbit polyclonal anti-hTERT antibody, and compared to that of untreated (U) tumors (lane 1). Lanes 5 and 6 contain samples from telomerase positive (+) and negative (−) extracts. Beta-actin levels of these samples were used as loading controls (lanes 1-6, lower panel). The data shown are representative of two independent trials, and error bars represent standard deviations.
# Analysis of telomere length in tumor tissues. The measurement of telomere length was performed in total genomic DNA samples isolated from tumor tissues of the SCID mice using Telomere Restriction Fragment (TRF) Length measurement kit (Roche) by Southern blotting as described in Sundararaj, et al. J Biol Chem 2004; 279:6152-6162.
# [7] = system: MCF7 cells; conditions: 5 μM, 5 h
# Description: FIGS. 4A-4C show the cellular levels of CCPS analogs. MCF 7 cells were treated with 5 μM concentration of CCPS analogs over the time and cellular level of the nonmetabolized CCPSs was measured by MS methodology as shown under Experimental. Results are expressed as % of concentration applied.
# A parallel set of cells was used to determine cell proliferation and to prepare lipid extracts for MS analysis.
# Briefly, for the indicated points, media was removed, cells were washed twice with PBS, scraped into cold PBS (2×1.0 ml), transferred to glass vials and centrifuged for 5 min at 800 rpm. Cell pellets corresponding to ˜1×10^6 cells, were fortified with the internal standards IS (C17 base D-erythro-sphingosine: 17Sph, C17 sphingosine-1-phosphate: 17Sph-1P, N-palmitoyl-D-erythro-C13 sphingosine: 13CC16-Cer and N-heptadecanoyl-D-erythro-C17shingosine: 17CC17-Cer) and extracted (2×2 ml) into a one-phase solvent system with ethyl acetate/iso-propanol/water (60/30/10 v/v). One ml of this extract was used for Pi determination after lipid re-extraction by the Bligh and Dyer method. Remaining lipid extract was evaporated, reconstituted in 100 μl of methanol, and samples were injected on the Surveyor/TSQ 7000 LC/MS system and gradient eluted from the BDS Hypersil C8, 150×3.2 mm, 3 μm particle size column, with 1.0 mM methanolic ammonium formate/2 mM aqueous ammonium formate mobile phase system. Peaks corresponding to the target analytes and IS were collected and processed using the Xcalibur software system.
# Cellular level of CCPS analogs was established by MS methodology.
# [8] = target: T1, dihydroceramide 4,5-desaturase (Homo sapiens, UniProt O15121); experiment: Conversion of dhCCPS analogs to CCPS analogs in MCF7 cells; format: cell-based; conditions: MS
# T1 construct: dihydroceramide 4,5-desaturase in MCF7 cells to generate the corresponding CCPS analogs; endogenous in cells; host or cells: MCF7
# T1 sequence (O15121 1-323): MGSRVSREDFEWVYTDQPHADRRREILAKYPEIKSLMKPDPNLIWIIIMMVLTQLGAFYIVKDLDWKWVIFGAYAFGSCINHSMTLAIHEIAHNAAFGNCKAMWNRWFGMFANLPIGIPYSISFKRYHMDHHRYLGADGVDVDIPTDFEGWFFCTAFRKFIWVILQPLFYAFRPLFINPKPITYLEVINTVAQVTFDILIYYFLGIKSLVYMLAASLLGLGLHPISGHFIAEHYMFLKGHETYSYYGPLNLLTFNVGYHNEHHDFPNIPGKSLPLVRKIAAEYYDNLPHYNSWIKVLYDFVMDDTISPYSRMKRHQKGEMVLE
# Excerpt: Absolute levels (pmol) of dhCCPS and CCPS analogs was established by MS approach as shown in the Examples (see Section 6). Data are expressed as changes of particular dhCCPS and CCPS to the total level of dhCCPS+CCPS (100%).
# [9] = Solubility of ceramides and ceramidoids in water
# [10] = system: MCF7 breast carcinoma cells; experiment: Cell proliferation and viability, Trypan blue exclusion assay; format: cell-based; conditions: 48 h treatment; read-out: IC50, inhibitory effect on MCF7 cell growth
# Description: FIGS. 5A-5F show the dose dependent effects of CCPS analogs on survival of MCF7 breast carcinoma cells in comparison to the activity of D-e-C6-ceramide, which is commonly used as a model of ceramide action. Cell proliferation and cell viability were determined by Trypan blue exclusion assay. These assays were performed using duplicate samples in two or three independent experiments.
# Cell Proliferation: Cells were seeded into plates at a density of approx. 50% corresponding to 1×10^6 cells, in 10 ml of 10% FCS and after an over night incubation the cells were treated with LCL compounds at concentration 0-20 μM in ethanol (ethanol level was kept below 0.1%) and the changes in cell numbers after 48 h were determined and expressed as a percentage of the untreated controls.
# Briefly, media was removed, cells were washed twice with PBS, detached using 1% Trypsin and centrifuged at 800 rpm. Cell pellets were resuspended in PBS and Trypan blue (Sigma Chemicals, St. Louis, Mo., USA) was added (1:1 dilution). Under light microscope, the percentage of unstained and stained cells was assessed.
# To examine the anticancer activity of CCPS analogs of the invention, their inhibitory effect on MCF7 breast carcinoma cells were analyzed and compared to the activity of D-e-C6-ceramide, which is commonly used as a model of action for ceramides. Cell proliferation and cell viability were determined by Trypan blue exclusion assay.
smiles,measurement,setting,value
CCCCCCCCCCCCCC(=O)NC(C)C(O)c1ccccc1 [D-MAPP],release of PGE2,[1],inhibited
"Nc1ccn([C@@H]2O[C@H](CO)[C@@H](O)C2(F)F)c(=O)n1 [GMZ, gemcitabine, reference compound]",MTD of reference drugs (known),[2],80 mg/kg
same,inhibition of telomerase activity,[3],50%
same,inhibition of HNSCC tumor growth,[4],some inhibition of HNSCC tumor growth
same,IC50,[5],0.1 to 0.25 µM
same,reduction of TRF (telomere) length in tumors,[6],~200 bp
"CCCCCCCCCCCCCCC[C@@H](O)[C@H](CO)NC(=O)CCCCCCCCCCC[n+]1ccccc1.[Br-] [LCL249, D-erythro-2-N-[12′-(1″-Pyridinium)-dodecanoyl]-4,5-dihydrosphingosine Bromide]","Cellular level, % of concentration applied",[7],7%
same,metabolism of dhCCPS to the corresponding CCPS analog,[8],time dependent formation of C12-CCPS (LCL88)
"CCCCCCCCCCCCCCC[C@@H](O)[C@H](CO)NC(=O)CCCCCCCCCCCCCCC[n+]1ccccc1.[Br-] [LCL345, D-erythro-2-N-[16′-(1″-Pyridinium)-hexadecanoyl]-4,5-dihydrosphingosine Bromide]","Cellular level, % of concentration applied",[7],4%
same,Solubility at 22° C.,[9]; 22° C.,0.3 mg/mL
same,Solubility at 22° C. ([mM]),[9]; 22° C.,(0.42) mM
same,Solubility at 37° C.,[9]; 37° C.,1.4 mg/mL
same,Solubility at 37° C. ([mM]),[9]; 37° C.,(2.0) mM
same,IC50,[10],2.5 µM
same,metabolism of dhCCPS to the corresponding CCPS analog,[8],time dependent formation of C16-CCPS (LCL30)
